Assay results reported in US8324151B2, “Treatment of sepsis and septic shock using ghrelin and growth hormone” (The Feinstein Institute for Medical Research, priority 2007, dated 2012).
Ends that are not written are not given here. * marks the point of attachment. Octanoyl = CCCCCCCC(=O)*

How the values were obtained:
[1] = test system: rats exposed to whole body irradiation followed by CLP; assay: Radiation combined injury (RCI): 5-Gy whole body irradiation followed by CLP; type: in vivo, rat
Method: Rats were exposed to 5-Gy whole body irradiation followed by cecal ligation and puncture (CLP) 48 h thereafter. Human ghrelin (30 nmol) or vehicle (saline) was infused for 68 h after radiation exposure. At 20 h post-CLP, circulating tissue injury markers were measured. A 10-day survival study was also performed.

[2] = test system: 24-month-old (aged) rats with LPS injection; assay: LPS-induced endotoxemia in aged rats treated with GH with or without ghrelin; type: in vivo, rat; details: 4 h after LPS 15 mg/kg BW, ghrelin 20 nmol/kg BW and/or GH 25 μg/kg BW bolus 30 min prior to LPS
Method: To determine whether GH sensitizes Ghrelin's anti-inflammatory effects, GH was administered (25 μg/kg BW, a bolus at 30 min prior to LPS injection) with or without ghrelin (20 nmol/kg BW, a bolus at 30 min prior to LPS injection) in 24-month-old (aged) rats with LPS injection (15 mg/kg BW). […] Similarly, organ injury indicators such as AST and ALT were attenuated only following co-administration of ghrelin and GH after LPS injection in aged animals (FIG. 9C-D).

[3] = test system: male 3-month-old (young) rats subjected to sepsis by CLP; type: in vivo
Method: Protective effects of ghrelin in young septic animals: This study was designed to determine whether ghrelin by itself can attenuate sepsis-induced inflammatory responses, cardiovascular responses, tissue injury, and mortality in young animals. To study this, male 3-month-old (young) rats were subjected to sepsis by CLP. At 5 h after CLP, a bolus IV injection of ghrelin (6 nmol/kg BW) was followed by a continuous infusion of ghrelin (40 nmol/kg BW) via a primed 200-μl Alzet mini-pump for 15 h. 20 h after CLP (i.e., severe sepsis), plasma levels of TNF-α, IL-6, and HMGB-1 were determined. Cardiac output (CO), stoke volume (SV), total peripheral resistance (TPR), and organ blood flow (BF) were measured using radioactive microspheres. Moreover, tissue injury indicators such as plasma levels of lactate and creatinine, as well as lung water content (edema) were determined. In additional groups of animals, the necrotic cecum was excised at 20 h after CLP, and a 10-day survival was recorded. […] Thus, ghrelin may provide a novel approach for anti-sepsis therapy in the young population. […] This also confirms that ghrelin can cross the blood-brain barrier to produce its beneficial effect centrally, thus reducing proinflammatory cytokines in sepsis. […] Plasma levels of TNF-α were measured at 1 h after LPS injection. […] However, due to the presence of central ghrelin hyporesponsiveness in aged animals, it is most likely that treatment with ghrelin alone will not produce desirable beneficial results in the geriatric population.

[4] = test system: male 3-month-old (young) rats subjected to sepsis by CLP; details: sepsis in young animals; Wu et al., 2004; cited from earlier work
[5] = test system: young rats with LPS injection; assay: ICV administration of ghrelin prior to IV LPS injection (endotoxemia); details: ghrelin 3 nmol/kg BW ICV 30 min prior to IV LPS 15 mg/kg BW; 1 h after LPS
[6] = test system: brain ghrelin receptor; assay: Effect of GH on central ghrelin receptor expression and parasympathetic neuronal activity; type: in vivo; details: no data given
[7] = plasma, 20 h post-CLP, human ghrelin 30 nmol infused for 68 h after radiation, Mean ± SE, n = 4-6/group
[8] = 20 h after CLP, ghrelin 6 nmol/kg BW IV bolus at 5 h + 40 nmol/kg BW infusion for 15 h
[9] = 20 h after CLP, radioactive microspheres

ghrelin: Endogenous ligand for the growth hormone secretagogue receptor; species form used in the LPS and CLP studies not stated (GSSFLSPEHQRVQQRKESKKPPAKLQPR; ends and bridges not checked; UniProt Q9UBU3 24-51, looked up)
Gut MPO ([1]; 20 h post-CLP, human ghrelin 30 nmol infused for 68 h after radiation, Mean ± SE, n = 4-6/group): 14.0 ± 1.1 μU/mg | ALT [1, 7]: 42.3 ± 5.4 IU/L | AST [1, 7]: 70.7 ± 70.3 IU/L | Creatinine [1, 7]: 1.60 ± 0.20 mg/dL | IL-6 [1, 7]: 817 ± 88 pg/mL | LDH [1, 7]: 1098 ± 88 U/L | Lactate [1, 7]: 19.4 ± 0.8 mg/dL | TNF-α [1, 7]: 41.8 ± 8.5 pg/mL | plasma levels of IL-6 [2]: neither ghrelin nor GH alone significantly decreased | plasma levels of TNF-α [2]: neither ghrelin nor GH alone significantly decreased | survival of septic animals ([3]; 10-day survival, necrotic cecum excised at 20 h after CLP, control 35%, n=20/group): 65% | lung edema (lung water content) ([3]; 20 h after CLP): decreased | plasma creatinine ([3]; 20 h after CLP): decreased | plasma lactate ([3]; 20 h after CLP): decreased | cytokine levels in peritoneal fluid ([3]; 20 h after CLP, data not shown): markedly reduced | plasma levels of HMGB-1 [3, 8]: significantly reduced | plasma levels of IL-6 [3, 8]: significantly reduced | plasma levels of TNF-α [3, 8]: significantly reduced | cardiac output (CO) [3, 9]: increased | organ blood flow in the gut [3, 9]: increased | organ blood flow in the kidneys [3, 9]: increased | organ blood flow in the liver [3, 9]: increased | stroke volume (SV) [3, 9]: increased | total peripheral resistance (TPR) [3, 9]: reduced | brain ghrelin levels ([3]; rat, in vivo, iv): restored the reduced brain ghrelin levels | circulating proinflammatory cytokines such as TNF-α and IL-6 [4]: significantly decreases | reduction of serum levels of TNF-α [5]: 65%

Human ghrelin: Human ghrelin; preferably GSSFLSPEHQRVQQRKESKKPPAKLQPR, S at position 3 n-octanoylated serine (SEQ ID NO:1) (GSS(Octanoyl)FLSPEHQRVQQRKESKKPPAKLQPR; listed as Homo sapiens)
survival ([1]; 10-day survival after RCI, vehicle 38%): 69% | decrease of the elevated injury markers in plasma ([1]; vs. RCI + vehicle, 20 h post-CLP): 41-59%

GH: Growth hormone; a ghrelin-sensitizing agent; preferred human forms SEQ ID NO:2-4
brain ghrelin receptor expression ([6]; aged animals (heading of b67)): increases | parasympathetic neuronal activity [6]: increases | plasma levels of IL-6 [2]: neither ghrelin nor GH alone significantly decreased | plasma levels of TNF-α [2]: neither ghrelin nor GH alone significantly decreased
